Test results as given in patent US10533021B2, “Boron-containing small molecules” (Anacor Pharmaceuticals, Inc., priority 2007, dated 2020).
Where a name gives a salt, the structure may show the parent alone.

Experiments:
[1] = tested on: E. coli; test: Resistance of E. coli mutants selected against the compound (MIC); type: cell-based; conditions: E. coli mutants showing resistance to compound vs wildtype
Excerpt: In an exemplary assay, activity of a representative compound against the editing domain was confirmed. To identify the target of the novel boron-containing antibacterial compound (A1), mutants in E. coli showing resistance to compound (A1) were isolated. […] The leuS gene from the mutants was cloned onto a plasmid and their resistance was confirmed by MIC. The editing domain from these mutants were sequenced and the mutations were all located in the editing domain of this enzyme.
All MIC testing of bacteria followed the Clinical and Laboratory Standards Institute (CLSI) guidelines for antimicrobial testing of aerobic bacteria (Methods for Dilution Antimicrobial Susceptibility Tests for Bacteria That Grow Aerobically; Approved Standard—Seventh Edition) (M07-A7) and anaerobic bacteria (Methods for Antimicrobial Susceptibility Testing of Anaerobic Bacteria; Approved Standard—Seventh Edition) (M11-A7).
Compare the minimal inhibitory concentration (MIC) of a tolC Escherichia coli strain bearing a pUC derived plasmid with and without an leuS gene insert.
If the MIC of the strain bearing the extra copies of leuS is greater than 2-fold more than the control strain then pour LB agar plates with four times the concentration of the MIC of the compound.
Plate 1×10^10 E. coli on ten plates containing 4×MIC of the compound. […]

[2] = Nail plate penetration; type: in vitro ADME
[3] = Solubility (water and formulation solvents); type: physicochemical; conditions: water

| Structure (SMILES) | penetration of the nail plate [2] | solubility [3] [µg/mL] | further results |
| --- | --- | --- | --- |
| NCC1OB(O)c2ccccc21 (centres unmarked) [A1, 3-Aminomethyl-3H-benzo[c][1,2]oxaborol-1-ol) hydrochloride] |  |  | fold increase in resistance of E. coli mutants over wildtype [1]: 32-256 fold |
| Fc1ccc2c(c1)COB2c1ccccc1 [Compound 3] | penetrates the nail plate poorly |  |  |
| Cc1cc(C2CCCCC2)n(O)c(=O)c1 [ciclopirox, reference compound] | penetrates the nail plate poorly |  |  |

Now from value to compound, other results behind:

| penetration of the nail plate [2] | solubility [3] [µg/mL] | Structure (SMILES) | further results |
| --- | --- | --- | --- |
|  | > 100 | OB1OCc2cc(F)ccc21 [compound 1] |  |
|  | > 100 | OB1OCc2cc(Cl)ccc21 [compound 2] |  |
